# Reference: US9393271B2, “GHRH agonists for islet cell transplantation and function and the treatment of diabetes” (UNIVERSITY OF MIAMI, priority 2012, dated 2016)
# Non-standard residues stand in square brackets, D forms with d. Residues, ends and D or L forms follow the SMILES beside them. *: point of attachment. Phe(F5) = N[C@@H](Cc1c(F)c(F)c(F)c(F)c1F)C(=O)O; Desaminotyrosyl = O=C(CCc1ccc(O)cc1)*; NMeY = CN[C@@H](Cc1ccc(O)cc1)C(=O)O; Agmatine = N=C(N)NCCCCN*; Nle = CCCC[C@H](N)C(=O)O; Orn = NCCC[C@H](N)C(=O)O; Abu = CC[C@H](N)C(=O)O; Aoc = NCCCCCCCC(=O)O; Ava = NCCCCC(=O)O; GABA = NCCCC(=O)O
# Target: T1, GHRH receptor (human pituitary membrane homogenates) (Homo sapiens, UniProt Q02643)
# T1 sequence (Q02643 23-423): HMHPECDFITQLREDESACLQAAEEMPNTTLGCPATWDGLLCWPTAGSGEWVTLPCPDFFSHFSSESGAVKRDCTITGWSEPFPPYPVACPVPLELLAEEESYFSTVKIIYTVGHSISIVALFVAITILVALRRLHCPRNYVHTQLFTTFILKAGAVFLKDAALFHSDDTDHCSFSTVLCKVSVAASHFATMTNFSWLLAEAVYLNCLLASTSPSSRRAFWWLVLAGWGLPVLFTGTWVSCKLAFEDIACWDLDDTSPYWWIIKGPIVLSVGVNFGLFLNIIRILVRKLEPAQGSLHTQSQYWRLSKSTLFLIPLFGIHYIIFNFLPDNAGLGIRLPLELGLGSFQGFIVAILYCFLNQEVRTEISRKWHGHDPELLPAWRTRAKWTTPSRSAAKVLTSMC
# Assay: GHRH receptor binding, ligand competition with 125I-labeled JV-1-42 (Table 7)
# Design: Normal human pituitaries were purchased from the National Hormone and Peptide Program; tissue National Hormone and Peptide Program (A. F. Parlow, Harbor-UCLA Medical Center, Torrance, Calif.); host or cells: normal human pituitary, membrane fraction / homogenate
# Settings: JI-38 = 1
row,SMILES,Relative affinitiy (Binding potency) vs JI-38
1,"CCCC[C@H](NC(=O)[C@@H](NC(=O)[C@H](CC(=O)O)NC(=O)[C@H](CCC(N)=O)NC(=O)[C@H](CC(C)C)NC(=O)[C@H](CC(C)C)NC(=O)[C@H](CCCN)NC(=O)[C@H](CCCNC(=N)N)NC(=O)[C@H](C)NC(=O)[C@H](CO)NC(=O)[C@H](CC(C)C)NC(=O)[C@H](CCC(N)=O)NC(=O)[C@H](CC)NC(=O)[C@H](CC(C)C)NC(=O)[C@@H](NC(=O)[C@H](CCCN)NC(=O)[C@H](CCCNC(=N)N)NC(=O)[C@H](Cc1ccc(O)cc1)NC(=O)[C@H](CO)NC(=O)[C@H](CCC(N)=O)NC(=O)[C@@H](NC(=O)[C@H](Cc1ccccc1)NC(=O)[C@@H](NC(=O)[C@H](C)NC(=O)[C@H](CC(=O)O)NC(=O)[C@@H](C)NC(=O)[C@H](Cc1ccc(O)cc1)N(C)C(C)=O)[C@@H](C)CC)[C@@H](C)O)C(C)C)[C@@H](C)CC)C(=O)N[C@@H](CC(=O)O)C(=O)NCCCCNC(=N)N [Peptide P-20351, [Ac—N—Me-Tyr^1, D-Ala^2, Gln^8, Orn^12, Abu^15, Orn^21, Nle^27, Asp^28, Agm^29]hGHRH(1-29)] (Ac-[NMeY][dA]DAIFTQSYR[Orn]VL[Abu]QLSAR[Orn]LLQDI[Nle]D-Agmatine)",1.26
2,"CCCC[C@H](NC(=O)[C@@H](NC(=O)[C@H](CC(=O)O)NC(=O)[C@H](CCC(N)=O)NC(=O)[C@H](CC(C)C)NC(=O)[C@H](CC(C)C)NC(=O)[C@H](CCCN)NC(=O)[C@H](CCCNC(=N)N)NC(=O)[C@H](C)NC(=O)[C@H](CO)NC(=O)[C@H](CC(C)C)NC(=O)[C@H](CCC(N)=O)NC(=O)[C@H](CC)NC(=O)[C@H](CC(C)C)NC(=O)[C@@H](NC(=O)[C@H](CCCN)NC(=O)[C@H](CCCNC(=N)N)NC(=O)[C@H](Cc1ccc(O)cc1)NC(=O)[C@H](CO)NC(=O)[C@H](CCC(N)=O)NC(=O)[C@@H](NC(=O)[C@H](Cc1ccccc1)NC(=O)[C@@H](NC(=O)[C@H](C)NC(=O)[C@H](CC(=O)O)NC(=O)[C@H](C)NC(=O)CCc1ccc(O)cc1)[C@@H](C)CC)[C@@H](C)O)C(C)C)[C@@H](C)CC)C(=O)N[C@@H](CC(=O)O)C(=O)N[C@@H](CCCNC(=N)N)C(=O)NCCCCC(N)=O [Peptide P-22327, [Dat^1, Gln^8, Orn^12, Abu^15, Orn^21, Nle^27, Asp^28, Apa^30]hGHRH(1-30)NH2] (Desaminotyrosyl-ADAIFTQSYR[Orn]VL[Abu]QLSAR[Orn]LLQDI[Nle]DR[Ava]-NH2)",2.18
3,"CCCC[C@H](NC(=O)[C@@H](NC(=O)[C@H](CC(=O)O)NC(=O)[C@H](CCC(N)=O)NC(=O)[C@H](CC(C)C)NC(=O)[C@H](CC(C)C)NC(=O)[C@H](CCCN)NC(=O)[C@H](CCCNC(=N)N)NC(=O)[C@H](C)NC(=O)[C@H](CO)NC(=O)[C@H](CC(C)C)NC(=O)[C@H](CCC(N)=O)NC(=O)[C@H](CC)NC(=O)[C@H](CC(C)C)NC(=O)[C@@H](NC(=O)[C@H](CCCN)NC(=O)[C@H](CCCNC(=N)N)NC(=O)[C@H](Cc1ccc(O)cc1)NC(=O)[C@H](CO)NC(=O)[C@H](CC(N)=O)NC(=O)[C@@H](NC(=O)[C@H](Cc1ccccc1)NC(=O)[C@@H](NC(=O)[C@H](C)NC(=O)[C@H](CC(=O)O)NC(=O)[C@H](C)NC(=O)[C@H](Cc1ccc(O)cc1)NC)[C@@H](C)CC)[C@@H](C)O)C(C)C)[C@@H](C)CC)C(=O)N[C@@H](CC(=O)O)C(=O)N[C@@H](CCCNC(=N)N)C(=O)NCCCCCCCC(N)=O [Peptide P-21301, [N—Me-Tyr^1, Orn^12, Abu^15, Orn^21, Nle^27, Asp^28, Amc^30]hGHRH(1-30)NH2] (H-[NMeY]ADAIFTNSYR[Orn]VL[Abu]QLSAR[Orn]LLQDI[Nle]DR[Aoc]-NH2)",1.45
4,"CCCC[C@H](NC(=O)[C@@H](NC(=O)[C@H](CC(=O)O)NC(=O)[C@H](CCC(N)=O)NC(=O)[C@H](CC(C)C)NC(=O)[C@H](CC(C)C)NC(=O)[C@H](CCCN)NC(=O)[C@H](CCCNC(=N)N)NC(=O)[C@H](C)NC(=O)[C@H](CO)NC(=O)[C@H](CC(C)C)NC(=O)[C@H](CCC(N)=O)NC(=O)[C@H](CC)NC(=O)[C@H](CC(C)C)NC(=O)[C@@H](NC(=O)[C@H](CCCN)NC(=O)[C@H](CCCNC(=N)N)NC(=O)[C@H](Cc1ccc(O)cc1)NC(=O)[C@H](CO)NC(=O)[C@H](CC(N)=O)NC(=O)[C@@H](NC(=O)[C@H](Cc1ccccc1)NC(=O)[C@@H](NC(=O)[C@H](C)NC(=O)[C@H](CC(=O)O)NC(=O)[C@@H](C)NC(=O)CCc1ccc(O)cc1)[C@@H](C)CC)[C@@H](C)O)C(C)C)[C@@H](C)CC)C(=O)N[C@@H](CC(=O)O)C(=O)N[C@@H](CCCNC(=N)N)C(=O)NCCCCCCCC(N)=O [Peptide P-21300, [Dat^1, D-Ala^2, Orn^12, Abu^15, Orn^21, Nle^27, Asp^28, Amc^30]hGHRH(1-30)NH2] (Desaminotyrosyl-[dA]DAIFTNSYR[Orn]VL[Abu]QLSAR[Orn]LLQDI[Nle]DR[Aoc]-NH2)",1.20

# Further lines, results first:
row,Relative affinitiy (Binding potency) vs JI-38,SMILES
1,2.79,"CCCC[C@H](NC(=O)[C@@H](NC(=O)[C@H](CC(=O)O)NC(=O)[C@H](CCC(N)=O)NC(=O)[C@H](CC(C)C)NC(=O)[C@H](CC(C)C)NC(=O)[C@H](CCCN)NC(=O)[C@H](CCCNC(=N)N)NC(=O)[C@H](C)NC(=O)[C@H](CO)NC(=O)[C@H](CC(C)C)NC(=O)[C@H](CCC(N)=O)NC(=O)[C@H](CC)NC(=O)[C@H](CC(C)C)NC(=O)[C@@H](NC(=O)[C@H](CCCN)NC(=O)[C@H](CCCNC(=N)N)NC(=O)[C@H](Cc1ccc(O)cc1)NC(=O)[C@H](CO)NC(=O)[C@H](CC(N)=O)NC(=O)[C@@H](NC(=O)[C@H](Cc1c(F)c(F)c(F)c(F)c1F)NC(=O)[C@@H](NC(=O)[C@H](C)NC(=O)[C@H](CC(=O)O)NC(=O)[C@@H](C)NC(=O)[C@H](Cc1ccc(O)cc1)NC)[C@@H](C)CC)[C@@H](C)O)C(C)C)[C@@H](C)CC)C(=O)N[C@@H](CO)C(=O)N[C@@H](CCCNC(=N)N)C(=O)NCCCC(=O)NC [Peptide P-27414, [N—Me-Tyr^1, D-Ala^2, Fpa5^6, Orn^12, Abu^15, Orn^21, Nle^27, Gab^30]hGHRH(1-30)NH—CH3] (H-[NMeY][dA]DAI[Phe(F5)]TNSYR[Orn]VL[Abu]QLSAR[Orn]LLQDI[Nle]SR[GABA]-NHMe)"
2,14.5,"CCCC[C@H](NC(=O)[C@@H](NC(=O)[C@H](CC(=O)O)NC(=O)[C@H](CCC(N)=O)NC(=O)[C@H](CC(C)C)NC(=O)[C@H](CC(C)C)NC(=O)[C@H](CCCN)NC(=O)[C@H](CCCNC(=N)N)NC(=O)[C@H](C)NC(=O)[C@H](CO)NC(=O)[C@H](CC(C)C)NC(=O)[C@H](CCC(N)=O)NC(=O)[C@H](CC)NC(=O)[C@H](CC(C)C)NC(=O)[C@@H](NC(=O)[C@H](CCCN)NC(=O)[C@H](CCCNC(=N)N)NC(=O)[C@H](Cc1ccc(O)cc1)NC(=O)[C@H](CO)NC(=O)[C@H](CCC(N)=O)NC(=O)[C@@H](NC(=O)[C@H](Cc1ccccc1)NC(=O)[C@@H](NC(=O)[C@H](C)NC(=O)[C@H](CC(=O)O)NC(=O)[C@H](C)NC(=O)[C@H](Cc1ccc(O)cc1)NC)[C@@H](C)CC)[C@@H](C)O)C(C)C)[C@@H](C)CC)C(=O)N[C@@H](CC(=O)O)C(=O)N[C@@H](CCCNC(=N)N)C(=O)NC [Peptide P-27406, [N—Me-Tyr^1, Gln^8, Orn^12, Abu^15, Orn^21, Nle^27, Asp^28]hGHRH(1-29)NH—CH3] (H-[NMeY]ADAIFTQSYR[Orn]VL[Abu]QLSAR[Orn]LLQDI[Nle]DR-NHMe)"
3,1.45,"CCCC[C@H](NC(=O)[C@@H](NC(=O)[C@H](CC(=O)O)NC(=O)[C@H](CCC(N)=O)NC(=O)[C@H](CC(C)C)NC(=O)[C@H](CC(C)C)NC(=O)[C@H](CCCN)NC(=O)[C@H](CCCNC(=N)N)NC(=O)[C@H](C)NC(=O)[C@H](CO)NC(=O)[C@H](CC(C)C)NC(=O)[C@H](CCC(N)=O)NC(=O)[C@H](CC)NC(=O)[C@H](CC(C)C)NC(=O)[C@@H](NC(=O)[C@H](CCCN)NC(=O)[C@H](CCCNC(=N)N)NC(=O)[C@H](Cc1ccc(O)cc1)NC(=O)[C@H](CO)NC(=O)[C@H](CCC(N)=O)NC(=O)[C@@H](NC(=O)[C@H](Cc1ccccc1)NC(=O)[C@@H](NC(=O)[C@H](C)NC(=O)[C@H](CC(=O)O)NC(=O)[C@H](C)NC(=O)CCc1ccc(O)cc1)[C@@H](C)CC)[C@@H](C)O)C(C)C)[C@@H](C)CC)C(=O)N[C@@H](CC(=O)O)C(=O)N[C@@H](CCCNC(=N)N)C(=O)NC [Peptide P-27407, [Dat^1, Gln^8, Orn^12, Abu^15, Orn^21, Nle^27, Asp^28]hGHRH(1-29)NH—CH3] (Desaminotyrosyl-ADAIFTQSYR[Orn]VL[Abu]QLSAR[Orn]LLQDI[Nle]DR-NHMe)"
4,1.59,"CCCC[C@H](NC(=O)[C@@H](NC(=O)[C@H](CC(=O)O)NC(=O)[C@H](CCC(N)=O)NC(=O)[C@H](CC(C)C)NC(=O)[C@H](CC(C)C)NC(=O)[C@H](CCCN)NC(=O)[C@H](CCCNC(=N)N)NC(=O)[C@H](C)NC(=O)[C@H](CO)NC(=O)[C@H](CC(C)C)NC(=O)[C@H](CCC(N)=O)NC(=O)[C@H](CC)NC(=O)[C@H](CC(C)C)NC(=O)[C@@H](NC(=O)[C@H](CCCN)NC(=O)[C@H](CCCNC(=N)N)NC(=O)[C@H](Cc1ccc(O)cc1)NC(=O)[C@H](CO)NC(=O)[C@H](CCC(N)=O)NC(=O)[C@@H](NC(=O)[C@H](Cc1ccccc1)NC(=O)[C@@H](NC(=O)[C@H](C)NC(=O)[C@H](CC(=O)O)NC(=O)[C@@H](C)NC(=O)CCc1ccc(O)cc1)[C@@H](C)CC)[C@@H](C)O)C(C)C)[C@@H](C)CC)C(=O)N[C@@H](CC(=O)O)C(=O)N[C@H](CCCNC(=N)N)C(=O)NC [Peptide P-27401, [Dat^1, D-Ala^2, Gln^8, Orn^12, Abu^15, Orn^21, Nle^27, Asp^28, D-Arg^29]hGHRH(1-29)NH—CH3] (Desaminotyrosyl-[dA]DAIFTQSYR[Orn]VL[Abu]QLSAR[Orn]LLQDI[Nle]D[dR]-NHMe)"
